The source of these data is patent US7956074B2, “Aryl-isoxazolo-4-yl-oxadiazole derivatives” (Hoffman-La Roche Inc., priority 2005, dated 2011).

This test addresses T1, GABA A receptor α5β3γ2 (Homo sapiens, UniProt P18507+P31644).
T1 construct: expressed in transfected cells; host or cells: HEK293 cells, transiently transfected; membranes prepared
The test is described as follows: [3H]flumazenil competition binding, human GABA A α5β3γ2. Conditions: competition for [3H]flumazenil (0.5 nM) binding, HEK293 cells expressing human (transiently transfected) α5β3γ2; means of two determinations; read-out: Ki[nM] hα5. The procedure:
Membrane Preparation and Binding Assay
The affinity of compounds at GABA A receptor subtypes was measured by competition for [3H]flumazenil (85 Ci/mmol; Roche) binding to HEK293 cells expressing rat (stably transfected) or human (transiently transfected) receptors of composition
Cell pellets were suspended in Krebs-tris buffer (4.8 mM KCl, 1.2 mM CaCl2, 1.2 mM MgCl2, 120 mM NaCl, 15 mM Tris; pH 7.5; binding assay buffer), homogenized by polytron for ca. 20 sec on ice and centrifuged for 60 min at 4° C. (50000 g; Sorvall, rotor: SM24=20000 rpm). The cell pellets were resuspended in Krebs-tris buffer and homogenized by polytron for ca. 15 sec on ice. Protein was measured (Bradford method, Bio-Rad) and aliquots of 1 mL were prepared and stored at −80° C.
Assays were incubated to equilibrium for 1 hour at 4° C. and harvested onto GF/C uni-filters (Packard) by filtration using a Packard harvester and washing with ice-cold wash buffer (50 mM Tris; pH 7.5). After drying, filter-retained radioactivity was detected by liquid scintillation counting. Ki values were calculated using Excel-Fit (Microsoft) and are the means of two determinations.

What is called Ki is a measure of affinity in units of concentration, obtained from inhibition or displacement.

In the case of `Cc1onc(-c2ccccc2)c1-c1nnc(-c2cc(F)c(N3CCS(=O)(=O)CC3)cc2F)o1` [Example 120, 4-{2,5-Difluoro-4-[5-(5-methyl-3-phenyl-isoxazol-4-yl)-[1,3,4]oxadiazol-2-yl]-phenyl}-thiomorpholine 1,1-dioxide], the Ki is 13.5 nM. The value for `COc1cc(N2CCOCC2)ccc1-c1nnc(-c2c(-c3ccccc3)noc2Cl)o1` [Example 105, 4-{4-[5-(5-Chloro-3-phenyl-isoxazol-4-yl)-[1,3,4]oxadiazol-2-yl]-3-methoxy-phenyl}-morpholine] was 27.1 nM; that for `Cc1onc(-c2ccccc2)c1-c1nnc(-c2cccc3[nH]cnc23)o1` [Example 125, 4-[5-(5-Methyl-3-phenyl-isoxazol-4-yl)-[1,3,4]oxadiazol-2-yl]-1H-benzoimidazole] was 26.8 nM; that for `CC(C)c1onc(-c2ccccc2)c1-c1nnc(-c2ccc3c(c2)n(C)c(=O)n3C)o1` [Example 53, 5-[5-(5-Isopropyl-3-phenyl-isoxazol-4-yl)-[1,3,4]oxadiazol-2-yl]-1,3-dimethyl-1,3-dihydro-benzoimidazol-2-one] was 2.3 nM. The value for `COc1cc(N2CCNCC2)ccc1-c1nnc(-c2c(-c3ccccc3)noc2C)o1` [Example 66, 1-{3-Methoxy-4-[5-(5-methyl-3-phenyl-isoxazol-4-yl)-[1,3,4]oxadiazol-2-yl]-phenyl}-piperazine] was 13.4 nM; that for `COc1cc(NC(=O)C2CC2)ccc1-c1nnc(-c2c(-c3ccccc3)noc2C)o1` [Example 16, Cyclopropanecarboxylic acid {3-methoxy-4-[5-(5-methyl-3-phenyl-isoxazol-4-yl)-[1,3,4]oxadiazol-2-yl]-phenyl}-amide] was 7.7 nM; that for `COc1cc(NCC2CCCO2)c(F)cc1-c1nnc(-c2c(-c3ccccc3)noc2C)o1` (racemic) [Example 130, rac-{2-Fluoro-5-methoxy-4-[5-(5-methyl-3-phenyl-isoxazol-4-yl)-[1,3,4]oxadiazol-2-yl]-phenyl}-(tetrahydro-furan-2-ylmethyl)-amine] was 10.5 nM. For the compound `COc1cc(NC2CCN(C)CC2)ccc1-c1nnc(-c2c(-c3ccccc3)noc2C)o1` [Example 65, {3-Methoxy-4-[5-(5-methyl-3-phenyl-isoxazol-4-yl)-[1,3,4]oxadiazol-2-yl]-phenyl}-(1-methyl-piperidin-4-yl)-amine], the Ki turned out to be 15.3 nM. The same measure for `Cc1onc(-c2ccccc2)c1-c1nnc(-c2ccc(C(=O)NC3CCOCC3)cc2)o1` [Example 81, 4-[5-(5-Methyl-3-phenyl-isoxazol-4-yl)-[1,3,4]oxadiazol-2-yl]-N-(tetrahydro-pyran-4-yl)-benzamide]: 86 nM; for `COc1cc(NCCSC)c(F)cc1-c1nnc(-c2c(-c3ccccc3)noc2C)o1` [Example 126, {2-Fluoro-5-methoxy-4-[5-(5-methyl-3-phenyl-isoxazol-4-yl)-[1,3,4]oxadiazol-2-yl]-phenyl}-(2-methylsulfanyl-ethyl)-amine]: 4.5 nM; for `Cc1onc(-c2ccccc2)c1-c1nnc(-c2ccc(N3CCC(F)(F)CC3)cc2)o1` [Example 112, 4,4-Difluoro-1-{4-[5-(5-methyl-3-phenyl-isoxazol-4-yl)-[1,3,4]oxadiazol-2-yl]-phenyl}-piperidine]: 31.2 nM.

Regarding `COc1cc(NCCO)c(F)cc1-c1nnc(-c2c(-c3ccccc3)noc2C)o1` [Example 129, 2-{2-Fluoro-5-methoxy-4-[5-(5-methyl-3-phenyl-isoxazol-4-yl)-[1,3,4]oxadiazol-2-yl]-phenylamino}-ethanol], the Ki was 2.5 nM. The value for `Cc1onc(-c2ccccc2)c1-c1nnc(-c2ccc(N3CCCCC3)cc2)o1` [Example 47, 1-{4-[5-(5-Methyl-3-phenyl-isoxazol-4-yl)-[1,3,4]oxadiazol-2-yl]-phenyl}-piperidine] was 46.9 nM; that for `COc1cc(F)ccc1-c1nnc(-c2c(-c3ccccc3)noc2C2CC2)o1` [Example 73, 2-(5-Cyclopropyl-3-phenyl-isoxazol-4-yl)-5-(4-fluoro-2-methoxy-phenyl)-[1,3,4]oxadiazole] was 11.9 nM; that for `Cc1onc(-c2ccccc2)c1-c1nnc(-c2ccccc2OCc2ccccc2)o1` [Example 46, 2-(2-Benzyloxy-phenyl)-5-(5-methyl-3-phenyl-isoxazol-4-yl)-[1,3,4]oxadiazole] was 255 nM.

Regarding `Cc1onc(-c2ccccc2)c1-c1nnc(-c2ccnc3ccccc23)o1` [Example 44, 4-[5-(5-Methyl-3-phenyl-isoxazol-4-yl)-[1,3,4]oxadiazol-2-yl]-quinoline], the Ki was found to be 88.9 nM. The value for `COc1cc(N2CCOCC2)ccc1-c1nnc(-c2conc2-c2ccc(F)cc2)o1` [Example 98, 4-(4-{5-[3-(4-Fluoro-phenyl)-isoxazol-4-yl]-[1,3,4]oxadiazol-2-yl}-3-methoxy-phenyl)-morpholine] was 49 nM; that for `COc1cc(N2CCOCC2)ccc1-c1nnc(-c2c(-c3ccsc3)noc2C)o1` [Example 123, 4-{3-Methoxy-4-[5-(5-methyl-3-thiophen-3-yl-isoxazol-4-yl)-[1,3,4]oxadiazol-2-yl]-phenyl}-morpholine] was 14.4 nM. The same measure for `Cc1onc(-c2ccccc2)c1-c1nnc(-c2ccccc2)o1` [Example 1, 2-(5-Methyl-3-phenyl-isoxazol-4-yl)-5-phenyl-[1,3,4]oxadiazole]: 400 nM; for `COc1cc(NC(=O)c2ccsc2)ccc1-c1nnc(-c2c(-c3ccccc3)noc2C)o1` [Example 23, Thiophene-3-carboxylic acid-{3-methoxy-4-[5-(5-methyl-3-phenyl-isoxazol-4-yl)-[1,3,4]oxadiazol-2-yl]-phenyl}-amide]: 18.3 nM; for `Cc1onc(-c2ccccc2)c1-c1nnc(-c2ccc(N3CCOCC3)nc2)o1` [Example 136, 4-{5-[5-(5-Methyl-3-phenyl-isoxazol-4-yl)-[1,3,4]oxadiazol-2-yl]-pyridin-2-yl}-morpholine]: 15.3 nM. The value for `Cc1onc(-c2ccccc2)c1-c1nnc(-c2ccc(N)cc2)o1` [Example 35, 4-[5-(5-Methyl-3-phenyl-isoxazol-4-yl)-[1,3,4]oxadiazol-2-yl]-phenylamine] was 31.2 nM; that for `COc1cc(NCC2CC2)ccc1-c1nnc(-c2c(-c3ccccc3)noc2C)o1` [Example 19, Cyclopropylmethyl-{3-methoxy-4-[5-(5-methyl-3-phenyl-isoxazol-4-yl)-[1,3,4]oxadiazol-2-yl]-phenyl}-amine] was 11.6 nM; that for `COc1cc(NCCN2CCNC2=O)c(F)cc1-c1nnc(-c2c(-c3ccccc3)noc2C)o1` [Example 133, 1-(2-{2-Fluoro-5-methoxy-4-[5-(5-methyl-3-phenyl-isoxazol-4-yl)-[1,3,4]oxadiazol-2-yl]-phenylamino}-ethyl)-imidazolidin-2-one] was 12.8 nM. With `COc1ncccc1-c1nnc(-c2c(-c3ccccc3)noc2C)o1` [Example 93, 2-Methoxy-3-[5-(5-methyl-3-phenyl-isoxazol-4-yl)-[1,3,4]oxadiazol-2-yl]-pyridine], the Ki was determined as 22.8 nM. The value for `Cc1onc(-c2ccccc2)c1-c1nnc(-c2ccc(N3CCSCC3)nc2)o1` [Example 138, 4-{5-[5-(5-Methyl-3-phenyl-isoxazol-4-yl)-[1,3,4]oxadiazol-2-yl]-pyridin-2-yl}-thiomorpholine] was 31 nM; that for `Cc1onc(-c2ccccc2)c1-c1nnc(-c2cccc(F)c2)o1` [Example 45, 2-(3-Fluoro-phenyl)-5-(5-methyl-3-phenyl-isoxazol-4-yl)-[1,3,4]oxadiazole] was 100 nM; that for `COc1cc(N2CCOCC2)ccc1-c1nnc(-c2c(-c3cccnc3)noc2C)o1` [Example 102, 4-{3-Methoxy-4-[5-(5-methyl-3-pyridin-3-yl-isoxazol-4-yl)-[1,3,4]oxadiazol-2-yl]-phenyl}-morpholine] was 146 nM. The value for `Cc1onc(-c2ccccc2)c1-c1nnc(-c2ccc(N3CCSCC3)cc2)o1` [Example 37, 4-{4-[5-(5-Methyl-3-phenyl-isoxazol-4-yl)-[1,3,4]oxadiazol-2-yl]-phenyl}-thiomorpholine] was 22.9 nM; that for `Cc1ccccc1-c1nnc(-c2c(-c3ccccc3)noc2C)o1` [Example 2, 2-(5-Methyl-3-phenyl-isoxazol-4-yl)-5-o-tolyl-[1,3,4]oxadiazole] was 234 nM; that for `Cc1onc(-c2ccccc2)c1-c1nnc(-c2cc(F)ccc2F)o1` [Example 83, 2-(2,5-Difluoro-phenyl)-5-(5-methyl-3-phenyl-isoxazol-4-yl)-[1,3,4]oxadiazole] was 163 nM. The same measure for `COCc1onc(-c2ccccc2)c1-c1nnc(-c2ccc(F)cc2OC)o1` [Example 91, 2-(4-Fluoro-2-methoxy-phenyl)-5-(5-methoxymethyl-3-phenyl-isoxazol-4-yl)-[1,3,4]oxadiazole]: 112 nM. With `Cc1onc(-c2ccccc2)c1-c1nnc(-c2ccnc(Cl)c2)o1` [Example 54, 2-Chloro-4-[5-(5-methyl-3-phenyl-isoxazol-4-yl)-[1,3,4]oxadiazol-2-yl]-pyridine], the Ki was determined as 88.4 nM. The value for `COc1cc(N2CCOCC2)c(F)cc1-c1nnc(-c2c(-c3ccccc3)noc2C)o1` [Example 114, 4-{2-Fluoro-5-methoxy-4-[5-(5-methyl-3-phenyl-isoxazol-4-yl)-[1,3,4]oxadiazol-2-yl]-phenyl}-morpholine] was 6 nM.
